Each structure is given as a SMILES string.

Test in all cases: Bliss excess, mean over the matrix (fraction); higher = more synergy
In assay [1] the test system is UACC-812 (Breast Carcinoma). The procedure, abridged: (§1)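 Cell lines grown in DMEM/F12 or RPMI with 10% FBS were plated in 1536-well plates and held 24 hours at 37°C, 5% CO2 before 72 hours of exposure to two-drug dose matrices, with DMSO typically at 0.2%. CellTiter-Glo 2.0 luminescence gave viability, which was converted to inhibition. Vehicle wells were set to 0 and blank wells to 1. Combination Emax is the second-highest inhibition in the matrix, and Bliss excess is the observed combination effect minus the expected EA + EB − EA·EB, where EA and EB are the single-agent effects.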

Assay [2] deals with KYSE-220 (Esophageal Squamous Cell Carcinoma). The procedure, abridged:
as §1

Assay [3] relates to A101D (Melanoma). The procedure, abridged: as §1
Assay [4] deals with EPLC-272H (Other Solid Carcinomas). The procedure, abridged: as §1
Assay [5] deals with LU-165 (Small Cell Lung Carcinoma). The procedure, abridged: as §1
Assay [6] concerns GA-10 (Burkitt's Lymphoma). The procedure, abridged:
as §1

Assay [7] relates to NCI-H2228 (Lung Adenocarcinoma). The procedure, abridged:
as §1

Assay [8] deals with JHH-2 (Hepatocellular Carcinoma). The procedure, abridged: as §1
Assay [9] has as its system NCI-H1651 (Lung Adenocarcinoma). The procedure, abridged:
as §1

Assay [10] relates to DU-4475 (Breast Carcinoma). The procedure, abridged:
as §1

The test system of assay [11] is 5637 (Bladder Carcinoma). The procedure, abridged: as §1
Assay [12] has as its system huH-1 (Hepatocellular Carcinoma). The procedure, abridged: as §1
Assay [13] relates to A253 (Head and Neck Carcinoma). The procedure, abridged:
as §1

The subject of assay [14] is RH-41 (Rhabdomyosarcoma). The procedure, abridged:
as §1

Assay [15] has as its system SW620 (Colorectal Carcinoma). The procedure, abridged:
as §1

Assay [16] deals with EW-16 (Ewing's Sarcoma). The procedure, abridged:
as §1

Assay [17] deals with A2780 (Ovarian Carcinoma). The procedure, abridged:
as §1

In assay [18] the test system is NCI-H2087 (Lung Adenocarcinoma). The procedure, abridged: as §1
In assay [19] the test system is G-402 (Other Solid Carcinomas). The procedure, abridged: as §1
Assay [20] relates to CGTH-W-1 (Thyroid Gland Carcinoma). The procedure, abridged: as §1

As to `COc1cccc(OCCCN)c1-c1cc(Nc2cnc(C#N)cn2)n[nH]1` [Prexasertib] + O=C(c1cc(Cc2n[nH]c(=O)c3ccccc23)ccc1F)N1CCN(C(=O)C2CC2)CC1 [Olaparib] (first compound max 1 µM, 7x7, partner max 10 µM), the Bliss excess is -0.0395 in [1]; -0.0238 in assay [2]; -0.0549 in assay [3]; -0.0631 in [4]; -0.128 in assay [5]; -0.0649 in assay [6]. For the same compound, the Bliss excess in assay [7] is -0.0834; in assay [8] it was -0.0428; in assay [9], -0.0471; in assay [10] it was -0.0174; in assay [11] it was -0.0729; in assay [12] it was 0.0434. For the same compound, the Bliss excess was -0.0617 in [13]; -0.061 in [14]; -0.0457 in [15]; 0.0036 in [16]; -0.0298 in [17]; -0.11 in [18]. The Bliss excess is -0.0572 in assay [19] and -0.0511 in assay [20].

Regarding `CCc1c2c(nc3ccc(O)cc13)-c1cc3c(c(=O)n1C2)COC(=O)[C@]3(O)CC` [SN-38] + CN(C)CCCOc1ccc(-c2ccc3ncc4c(c3c2)n(C2CCOCC2)c(=O)n4C)cn1 [AZD0156] (first compound max 0.3 µM, 7x7, partner max 1 µM), the Bliss excess was 0.034 in [1]; 0.0574 in [2]; 0.0006 in assay [3]; 0.0536 in assay [4]; -0.028 in [5]; 0.0494 in assay [6]. The Bliss excess is 0.0587 in [7]; 0.0204 in [8]; -0.021 in [9]; 0.0129 in [10]; 0.0507 in assay [11]; 0.0502 in assay [12]. For the same compound, the Bliss excess was -0.0019 in [13]; -0.0913 in assay [14]; 0.11 in [15]; 0.0385 in [16]; -0.0099 in assay [17]; 0.0485 in [18]. The Bliss excess in assay [19] is 0.003; in [20], -0.0056.

`Cn1cnc2c(F)c(Nc3ccc(Br)cc3Cl)c(C(=O)NOCCO)cc21` [Selumetinib] + C=CCn1c(=O)c2cnc(Nc3ccc(N4CCN(C)CC4)cc3)nc2n1-c1cccc(C(C)(C)O)n1 [AZD1775] (first compound max 10 µM, partner max 1 µM): the Bliss excess in assay [1] was -0.0425; in [2], -0.0391; in [3], -0.087; in [4] it was -0.0607; in assay [5] it was -0.0589; in assay [6], -0.0321. Further, the Bliss excess in [7] is -0.0613; in assay [8] it was -0.0571; in assay [9], -0.0692; in [10], -0.0196; in assay [11], -0.0306; in [12], -0.116. In addition, the Bliss excess in assay [13] is -0.0181; in assay [14], -0.0189; in assay [15], -0.0198; in [16], -0.0214; in assay [17], -0.0352; in assay [18], 0.0084. Further, the Bliss excess was -0.073 in assay [19] and -0.0427 in [20].

`Cn1cnc2c(F)c(Nc3ccc(Br)cc3Cl)c(C(=O)NOCCO)cc21` [Selumetinib] + CC(C)n1c(=O)n(C)c2cnc3cc(F)c(-c4ccc(OCCCN5CCCCC5)nc4)cc3c21 [AZD1390] (first compound max 10 µM, 7x7, partner max 0.3 µM): the Bliss excess in [1] was -0.0436; in [2], 0.0022; in [3], -0.0246; in [4], -0.0442; in assay [5] it was -0.03; in assay [6], -0.0227. The Bliss excess is -0.0477 in assay [7]; -0.0357 in assay [8]; -0.0305 in assay [9]; -0.0112 in assay [10]; -0.0226 in assay [11]; -0.0349 in assay [12]. Besides, the Bliss excess in assay [13] was -0.0504; in [14], -0.0082; in assay [15] it was -0.0102; in assay [16] it was -0.0582; in assay [17], -0.0369; in [18], -0.0541. Also, the Bliss excess in assay [19] was -0.0095; in [20], -0.0388.

For the compound `Cn1cnc2c(F)c(Nc3ccc(Br)cc3Cl)c(C(=O)NOCCO)cc21` [Selumetinib] + CCN(CCO)CCCOc1ccc2c(Nc3cc(CC(=O)Nc4cccc(F)c4)[nH]n3)ncnc2c1 [AZD2811] (first compound max 10 µM, 7x7, partner max 1 µM), the Bliss excess was -0.049 in assay [1]; 0.036 in assay [2]; -0.0718 in assay [3]; 0.0426 in assay [4]; -0.0377 in [5]; -0.0559 in assay [6]. The Bliss excess in [7] is -0.0357; in assay [8] it was -0.0193; in assay [9], -0.0283; in [10] it was 0.0351; in assay [11] it was 0.0276; in assay [12], -0.0492. The Bliss excess in assay [13] was -0.018; in assay [14] it was 0.0363; in assay [15], 0.0738; in [16] it was -0.0221; in assay [17] it was 0.0251; in assay [18], -0.0497. Besides, the results for the Bliss excess in assay [19] and in assay [20] were -0.0137 and -0.0329, respectively.

Consider `Cn1cnc2c(F)c(Nc3ccc(Br)cc3Cl)c(C(=O)NOCCO)cc21` [Selumetinib] + C[C@@H]1COCCN1C2=NC(=NC(=C2)C3(CC3)[S@](=N)(=O)C)C4=C5C=CNC5=NC=C4 [AZD6738] (first compound max 10 µM, 7x7, partner max 10 µM), for which the Bliss excess in assay [1] is -0.0397; in [2], -0.0446; in assay [3], -0.0548; in [4], -0.0497; in [5], -0.0284; in assay [6], -0.0046. Moreover, the Bliss excess is -0.0098 in assay [7]; 0.0264 in assay [8]; -0.0638 in assay [9]; -0.0103 in assay [10]; 0.0382 in [11]; -0.0551 in [12]. Besides, the Bliss excess in assay [13] was -0.0229; in assay [14], -0.0004; in [15], 0.0587; in assay [16], -0.0914; in assay [17], 0.0429; in [18], -0.0057. Also, the Bliss excess in [19] was -0.0353; in assay [20], -0.0232.

`CC(=O)Nc1cccc(-n2c(=O)n(C3CC3)c(=O)c3c(Nc4ccc(I)cc4F)n(C)c(=O)c(C)c32)c1` [Trametinib] + Cc1nc(-c2cn3c(n2)-c2ccc(-c4cnn(C(C)(C)C(N)=O)c4)cc2OCC3)n(C(C)C)n1 [Taselisib] (first compound max 1 µM, 7x7, partner max 10 µM): the Bliss excess in [1] was determined as 0.0522; in [2], 0.152; in [3], 0.0168; in [4] it was 0.041; in assay [5], 0.0388; in [6], 0.0619. The Bliss excess in assay [7] is 0.0724; in assay [8] it was -0.0221; in assay [9], 0.0354; in [10] it was 0.0664; in [11] it was 0.292; in assay [12], 0.195. In addition, the Bliss excess is 0.145 in assay [13]; 0.0419 in assay [14]; 0.0527 in assay [15]; 0.0772 in assay [16]; 0.0164 in assay [17]; 0.163 in [18]. Besides, the Bliss excess in [19] came to 0.0104; in [20], 0.174.

(Values after the supplement of paper PMC11061612.)
